Measured values as given in patent publication US20240390484A1 (priority 2022, published 2024).

Key:
[1] = Stability of blank-LNP at 2-8° C. (particle size, PDI); type: physicochemical; conditions: blank-LNP 48/40.5/10/1.5 mol %
Protocol: (§1) Lipid nanoparticles (LNPs) were formed or formulated by rapid mixing of an ethanol phase and an aqueous phase using a microfluidic device. The aqueous phase included a 50 mM citrate buffer (pH 5.5). The ethanol phase included an ionizable lipid (as described herein), cholesterol (Jiangsu Southeast Nanomaterials), 1,2-diastearoyl-sn-glycero-3-phosphocholine (DSPC) (Jiangsu Southeast Nanomaterials) and 1,2-dimyristoyl-rac-glycero-3-methoxypolyethylene glycol-2000 (DMG-PEG2000) (SINOPEG). A series of ionizable lipids were evaluated. These four lipid components were mixed at defined molar ratios in ethanol, for instance, at a molar ratio of 48:40.5:10:1.5 (ionizable lipid:cholesterol:DSPC:DMG-PEG2000). The generated LNP particles were purified in citrate buffer (containing sucrose) and characterized with respect to particle size, polydispersity index (PDI) and ionizable lipid concentration. The LNP solution was then diluted to the target concentration and stored at 2-8° C.
Each generated blank-LNP formulation was added to and mixed with lyophilized S2P RNA, altogether yielding a series of “ready-to-use” S2P RNA test items containing the different ionizable lipids. The pharmaceutical characteristics (Table 3) and in vitro transfection efficiency (Table 4) of these “ready-to-use” RNA test items were compared head-to-head. In parallel, the stability profiles of these […] blank-LNP formulations (i.e. without RNA complexation) were assessed at 2-8° C. (see Table 5).
The generated fourteen blank-LNP formulations were characterized in terms of particle size and PDI, both at the end of manufacturing (T=0) and 8-week storage at 2-8° C. […] (defined as size increase ≤20 nm in 8 weeks), namely DMG-PEG2000 between at least 1-4 mol %, DSPC between at least 5-20 mol %, ionizable lipid between at least 30-70 mol % and cholesterol between at least 18.5-58.5 mol %.

Vero E6 cells = type: cell-based; conditions: ready-to-use S2P RNA, 4 μg, 48 hours post transfection; 48/40.5/10/1.5 mol %
[2] = RNA encapsulation/complexation efficiency by Ribogreen assay; type: physicochemical; conditions: 48/40.5/10/1.5 mol %; blank-LNP added to lyophilized S2P RNA (55 ug/vial), N/P 7
Protocol: (§2) In the case of a filled LNP, for example, an LNP-encapsulated S-2P RNA liquid drug product, the preparation protocol is essentially the same, except that it was an aqueous solution of S-2P RNA in citrate buffer pH 5-6 that constitutes the aqueous phase for LNP formation. The LNP-encapsulated RNA formulation is also referred to as “RNA-LNP” in this disclosure. Regarding characterization, particle size and polydispersity index (PDI) of the RNA-LNP were determined by Dynamic Light Scattering (DLS); RNA encapsulation efficiency and concentration were determined by means of Ribogreen® assay and RNA purity was determined by agarose gel electrophoresis.
(§3) The “ready-to-use” RNA product was manufactured by transferring a predetermined amount of already formed LNP in solution to a sealed vial containing the lyophilized RNA composition, followed by mixing at room temperature. The amount of LNP added per vial (e.g., 30-100 μg RNA per vial) was determined based on the molar ionizable lipid:RNA (N/P) molar ratio of 7. In this disclosure, “ready-to-use” S-2P RNA formulations (also referred to as “LNP(S-2P RNA)”) containing 30-100 μg/mL S-2P RNA were prepared, and then characterized with respect to particle size, polydispersity index, as well as RNA concentration, complexation efficiency, and purity using the same methods as described above in Example 3.

[3] = Particle size and polydispersity index (PDI) by Dynamic Light Scattering; type: physicochemical; conditions: for “Ready-to-use” S2P RNA formulation PDI / “Ready-to-use” S2P RNA formulation Size: 48/40.5/10/1.5 mol %, blank-LNP added to lyophilized S2P RNA (55 ug/vial), N/P 7; for Blank-LNP PDI / Blank-LNP Size: 48/40.5/10/1.5 mol % ionizable lipid/cholesterol/DSPC/DMG-PEG
Protocol: as §1, §2, §3

BHK-21 cells = type: cell-based; conditions: ready-to-use S2P RNA, 4 μg, 48 hours post transfection; 48/40.5/10/1.5 mol %

Row | Compound | Change in size (nm) vs. T0, T = 1 month [1] | PDI, T = 1 month [1] | Size, T = 1 month [1] [nm] | Change in size (nm) vs. T0, T = 2 weeks [1] | PDI, T = 2 weeks [1] | Size, T = 2 weeks [1] [nm] | PDI, T = 0 [1] | Size, T = 0 [1] [nm] | RBD expression in Vero E6 cells (Vero E6 cells) | “Ready-to-use” S2P RNA formulation RNA complexation efficiency [2] [%] | “Ready-to-use” S2P RNA formulation PDI [3] | “Ready-to-use” S2P RNA formulation Size [3] [nm] | Blank-LNP PDI [3] | Blank-LNP Size [3] [nm] | RBD expression in BHK-21 cells (BHK-21 cells) [ng/mL]
1 | CCCCCCOCCC/C=C/COC(=O)CCCCCCCCC(CCCCCCCCC(=O)OC/C=C/CCCOCCCCCC)OC(=O)CCCN(C)C [Lipid #11] | +59 nm | 0.06 | 224 | +42 nm | 0.04 | 207 | 0.09 | 165 | 0.20 ng/mL | 34 | 0.11 | 266 | 0.09 | 165 | 0.52
2 | CCCCCCCCOC/C=C\COC(=O)CCCCCCCCC(CCCCCCCCC(=O)OC(CCCCCCCC)CCCCCCCC)OC(=O)CCCN(C)C (stereo not drawn) [Lipid #12] | +12 nm | 0.11 | 97 | +8 nm | 0.06 | 93 | 0.04 | 85 | <LOD | 27 | 0.14 | 172 | 0.04 | 85 | 0.19
